Experiments:
Format in all cases: in vivo
[1] = tested on: Amaranthus retroflexus (AMARE); test: Biological Example 1 glasshouse screen, pre-emergence herbicidal activity; details: application rate 250 g/ha, evaluated after 13 days
Protocol: (§1) Seeds of a variety of test species were sown in standard soil in pots. After cultivation for one day (pre-emergence) or after 8 days cultivation (post-emergence) under controlled conditions in a glasshouse (at 24/16°C., day/night; 14 hours light; 65% humidity), the plants were sprayed with an aqueous spray solution derived from the formulation of the “technical”(i.e. unformulated) active ingredient in acetone/water (50:50) solution containing 0.5% Tween 20 (polyoxyethylene sorbitan monolaurate, CAS Registry Number 9005-64-5). The test plants were then grown in a glasshouse under controlled conditions in a glasshouse (at 24/16°C., day/night; 14 hours light; 65% humidity) and watered twice daily. After 13 days for pre- or post-emergence, the test was evaluated visually, and an assessed percentage phytotoxicity score given for each herbicidal application on each plant/weed species (with 100%=total damage to plant; 0%=no damage to plant).
(§2) Test plants: Alopecurus myosuroides (ALOMY), Setaria faberi (SETFA), Echinochloa crus-galli (ECHCG), Solanum nigrum (SOLNI), Amaranthus retroflexus (AMARE) and Ipomoea hederacea (IPOHE). ALOMY, SETFA and ECHCG are grassy monocotyledonous weeds. SOLNI, AMARE and IPOHE are dicotyledonous (broadleaved) weeds.

[2] = tested on: Ipomoea hederacea (IPOHE); test: as above; details: application rate 250 g/ha, evaluated after 13 days
Protocol: as §1, §2

Setaria faberi (SETFA) [3] = test: as above; details: application rate 250 g/ha, evaluated after 13 days
Protocol: as §1, §2

Solanum nigrum (SOLNI) [4] = test: as above; details: application rate 250 g/ha, evaluated after 13 days
Protocol: as §1, §2

[5] = tested on: Alopecurus myosuroides (ALOMY); test: as above; details: 312 h, application rate 250 g/ha, evaluated after 13 days, read-out: ALOMY percentage phytotoxicity
Outline: (§3)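 Potted test species received a foliar or soil spray of active ingredient in acetone/water (50:50), 0.5% Tween 20, at 1 or 8 days after sowing for pre- and post-emergence respectively. Percentage phytotoxicity was assessed by eye after 13 days.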

[6] = tested on: Echinochloa crus-galli (ECHCG); test: as above; details: 312 h, application rate 250 g/ha, evaluated after 13 days, read-out: ECHCG percentage phytotoxicity
Outline: as §3

[7] = tested on: Amaranthus retroflexus (AMARE); test: Biological Example 1 glasshouse screen, post-emergence herbicidal activity; details: application rate 250 g/ha, evaluated after 13 days
Protocol: as §1, §2

[8] = tested on: Ipomoea hederacea (IPOHE); test: as above; details: application rate 250 g/ha, evaluated after 13 days
Protocol: as §1, §2

Setaria faberi (SETFA) [9] = test: as above; details: application rate 250 g/ha, evaluated after 13 days
Protocol: as §1, §2

Solanum nigrum (SOLNI) [10] = test: as above; details: application rate 250 g/ha, evaluated after 13 days
Protocol: as §1, §2

[11] = tested on: Alopecurus myosuroides (ALOMY); test: as above; details: 312 h, application rate 250 g/ha, evaluated after 13 days, read-out: ALOMY percentage phytotoxicity
Outline: as §3

[12] = tested on: Echinochloa crus-galli (ECHCG); test: as above; details: 312 h, application rate 250 g/ha, evaluated after 13 days, read-out: ECHCG percentage phytotoxicity
Outline: as §3

[13] = tested on: Alopecurus myosuroides (ALOMY); test: Biological Example 2 post-emergence herbicidal activity (comparative data); details: 312 h, read-out: ALOMY percentage phytotoxicity; for pest or weed control at 15.625 g/ha: 15.625 g/ha application rate; for pest or weed control at 62.5 g/ha: 62.5 g/ha application rate
Protocol: as §1
(§4) Comparative herbicidal data are given for certain exemplified compounds with 4-(prop-1-ynyl)-2,6-dimethylphenyl or 4-(chloroethynyl)-2,6-dimethylphenyl headgroups, compared to the corresponding comparative compounds with 4-ethynyl-2,6-dimethylphenyl headgroups, as follows.
(§5) Except where specified otherwise, the glasshouse screen for herbicidal activity is substantially the same as that presented in Biological Example 1 hereinabove. The weed abbreviations are as defined in Biological Example 1.

[14] = tested on: Echinochloa crus-galli (ECHCG); test: as above; details: 312 h, read-out: ECHCG percentage phytotoxicity; for pest or weed control at 15.625 g/ha: 15.625 g/ha application rate; for pest or weed control at 62.5 g/ha: 62.5 g/ha application rate
Protocol: as §1, §4, §5

Setaria faberi (SETFA) [15] = test: as above
Protocol: as §1, §4, §5

[16] = tested on: Triticum aestivum, wheat (TRZAW); test: Biological Example 3 glasshouse screen, post-emergence, phytotoxicity on wheat; details: 360 h, 15 DAA, no safener, read-out: TRZAW percentage phytotoxicity
Outline: (§6)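 Plants grown 12 days in glasshouse pots (24/18°C or 20/16°C day/night, 16 h light, 65% humidity), then sprayed with active ingredient in acetone plus IF50 (1:20) in water with 0.2% v/v X-77. No safener used. Visual % phytotoxicity (100% = total damage) scored 15 DAA.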

[17] = tested on: Alopecurus myosuroides, blackgrass (ALOMY); test: Biological Example 3 glasshouse screen, post-emergence herbicidal activity; details: 360 h, 15 DAA, no safener, read-out: ALOMY percentage phytotoxicity
Outline: as §6

[18] = tested on: Avena fatua, wild oats (AVEFA); test: as above; details: 360 h, 15 DAA, no safener, read-out: AVEFA percentage phytotoxicity
Outline: as §6

[19] = tested on: Echinochloa crus galli, barnyardgrass (ECHCG); test: as above; details: 360 h, 15 DAA, no safener, read-out: ECHCG percentage phytotoxicity
Outline: as §6

[20] = tested on: Lolium perenne, perennial ryegrass (LOLPE); test: as above; details: 360 h, 15 DAA, no safener, read-out: LOLPE percentage phytotoxicity
Outline: as §6

SMILES | AMARE percentage phytotoxicity [1] | IPOHE percentage phytotoxicity [2] | SEFTA percentage phytotoxicity (Setaria faberi (SETFA) [3]) | SOLNI percentage phytotoxicity (Solanum nigrum (SOLNI) [4]) | pest or weed control at 250 g/ha [5] | pest or weed control at 250 g/ha [6] | AMARE percentage phytotoxicity [7] | IPOHE percentage phytotoxicity [8] | SEFTA percentage phytotoxicity (Setaria faberi (SETFA) [9]) | SOLNI percentage phytotoxicity (Solanum nigrum (SOLNI) [10]) | pest or weed control at 250 g/ha [11] | pest or weed control at 250 g/ha [12] | pest or weed control at 15.625 g/ha [13] | pest or weed control at 62.5 g/ha [13] | pest or weed control at 15.625 g/ha [14] | pest or weed control at 62.5 g/ha [14] | SETFA percentage phytotoxicity (Setaria faberi (SETFA) [15]; 15.625 g/ha application rate) | SETFA percentage phytotoxicity (Setaria faberi (SETFA) [15]; 62.5 g/ha application rate) | further results
Cc1cc(C#CCl)cc(C)c1C1C(=O)C2C(C1=O)[C@H]1CC[C@@H]2O1 (stereo partly shown) [Compound A-17] | 100% | 80% | 100% | 80% | 80% | 100% | 10% | 70% | 90% | 70% | 80% | 100% | 60% | 70% | 100% | 100% | 80% | 80% | –
CC#Cc1cc(C)c(C2=C(O)CCC2=O)c(C)c1 [Compound A-1, 2-(2,6-Dimethyl-4-prop-1-ynylphenyl)cyclopentane-1,3-dione] | 0% | 0% | 80% | 0% | 100% | 100% | 0% | 30% | 70% | 10% | 90% | 100% | 20% | 80% | 70% | 100% | 40% | 60% | pest or weed control at 125 g/ha ([16]; application rate 125 g/ha): 40%; pest or weed control at 125 g/ha ([17]; application rate 125 g/ha): 70%; pest or weed control at 125 g/ha ([18]; application rate 125 g/ha): 0%; pest or weed control at 125 g/ha ([19]; application rate 125 g/ha): 80%; pest or weed control at 125 g/ha ([20]; application rate 125 g/ha): 50%
Cc1cc(C#CCl)cc(C)c1C1C(=O)CCC1=O [Compound A-16] | 40% | 0% | 90% | 10% | 50% | 100% | 10% | 10% | 70% | 20% | 50% | 100% | 10% | 10% | 70% | 90% | 0% | 80% | –
Cc1cc(C#CCl)cc(C)c1C1=C(O)CC(Cc2ccccn2)C1=O (racemic) [Compound A-3, rac-2-(4-Chloroethynyl-2,6-dimethylphenyl)-4-(pyridin-2-ylmethyl)cyclopentane-1,3-dione] | 90% | 70% | 100% | 90% | 90% | 100% | 60% | 30% | 100% | 70% | 90% | 100% | 90% | 90% | 100% | 100% | 80% | 90% | –
CC#Cc1cc(C)c(C2C(=O)C3C(C2=O)[C@H]2CC[C@@H]3O2)c(C)c1 (mixture of isomers) [Compound A-18, (1RS,2SR,6RS,7SR)-4-(2,6-dimethyl-4-prop-1-ynylphenyl)-10-oxatricyclo[5.2.1.0^2,6]decane-3,5-dione] | 100% | 80% | 100% | 80% | 100% | 100% | 30% | 80% | 100% | 80% | 100% | 100% | 90% | 100% | 100% | 100% | 70% | 90% | pest or weed control at 8 g/ha ([16]; application rate 8 g/ha): 40%; pest or weed control at 8 g/ha ([17]; application rate 8 g/ha): 70%; pest or weed control at 8 g/ha ([18]; application rate 8 g/ha): 30%; pest or weed control at 8 g/ha ([19]; application rate 8 g/ha): 80%; pest or weed control at 8 g/ha ([20]; application rate 8 g/ha): 80%

— patent US9107415B2, “2-(substituted-phenyl)-cyclopentane-1,3-dione compounds, and derivatives thereof” (Syngenta Limited, priority 2011, dated 2015)
